According to patent US8163767B2, “Heterocyclic Janus Kinase 3 inhibitors” (Astellas Pharma Inc., priority 2005, dated 2012):
Where a name gives a salt, the structure may show the parent alone.

These molecules were tested against T1, human JAK3 (Homo sapiens, UniProt P52333) (assay: Determination of Janus Kinase 3 (JAK3) inhibitory activity). Details: JAK3 inhibitory activity.
T1 construct: His (N); purchased Carna Bioscience Inc. (Kobe, Japan); host or cells: baculovirus expression system
T1 sequence (P52333 796-1124): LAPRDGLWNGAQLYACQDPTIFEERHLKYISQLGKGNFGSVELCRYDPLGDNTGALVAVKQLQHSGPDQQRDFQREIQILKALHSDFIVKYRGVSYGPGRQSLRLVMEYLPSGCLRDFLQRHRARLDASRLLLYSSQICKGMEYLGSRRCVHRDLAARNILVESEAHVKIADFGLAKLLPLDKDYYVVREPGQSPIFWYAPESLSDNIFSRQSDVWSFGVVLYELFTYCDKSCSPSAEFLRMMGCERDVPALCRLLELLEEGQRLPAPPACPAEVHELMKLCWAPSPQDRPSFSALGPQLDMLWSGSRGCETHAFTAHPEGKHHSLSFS
Type: biochemical
Experimental: Test 1: Determination of Janus Kinase 3 (JAK3) Inhibitory Activity
The assay for JAK3 activity was performed basically according to the method as proposed by Okimoto et al, as follows.
Purified kinase domain (KD) of human JAK3 was purchased from Carna Bioscience Inc. (Kobe, Japan). 796-1124 (end) amino acids of human JAK3 [accession number #NM_000215] was expressed as N-terminal His-tagged protein (41 kDa) using the baculovirus expression system and purified by using Ni-NTA affinity chromatography.
Biotin-Lyn-Substrate-peptide and ATP were used as substrates. Assay buffer consisted of 15 mM Tris-HCl pH7.5, 0.01% Tween 20 and 2 mM DTT. For the standard assay, 20 μL of substrate solution (Assay buffer containing 627 nM Biotin-Lyn-Substrate-2, 20 μM ATP and 25 mM MgCl2), 10 μL of assay buffer containing test compound and 20 μL of enzyme solution were added to the plate and mixed well.
After 1 hour incubation at ambient temperature, the plate was washed 4 times with wash buffer (50 mM Tris-HCl pH 7.5, 150 mM NaCl, 0.02% Tween 20), and then blocking buffer (wash buffer containing 0.1% Bovine serum albumin) was added to the plate. After 30 minutes incubation at ambient temperature, blocking buffer was removed and HRP-PY-20 solution (HRP-PY-20 500 times diluted with blocking buffer) was added. After 30 minutes incubation at ambient temperature, the plate was washed 4 times and TMB substrate solution (Sigma) was added to the plate. After 4 minutes incubation at ambient temperature, 1 M H2SO4 was added to the plate to stop the reaction. Enzyme activity was measured as optical density at 450 nm.
In the case of `C[C@@H]1CCCC[C@@H]1Nc1c(C(N)=O)cnc2[nH]ccc12` [Example 106, 4-{[(1S,2R)-2-Methylcyclohexyl]amino}-1H-pyrrolo[2,3-b]-pyridine-5-carboxamide], the IC50 is reported as 3 nM.
`C[C@@H]1CCCC[C@@H]1n1c(=O)[nH]c2cnc3[nH]ccc3c21` [Example 112, 1-[(1S,2R)-2-methylcyclohexyl]-3,6-dihydroimidazo[4,5-d]pyrrolo[2,3-b]pyridin-2(1H)-one] showed an IC50 of 3 nM.
Molecule `CC[C@@H]1CCCC[C@@H]1n1c(=O)[nH]c2cnc3[nH]ccc3c21` [Example 118, 1-[(1S,2R)-2-Ethylcyclohexyl]-3,6-dihydroimidazo[4,5-d]pyrrolo-[2,3-b]pyridin-2(1H)-one hydrochloride] has an IC50 of 5.1 nM.

Same assay, conditions: read-out: IR (JAK3 inhibition rate)
`CC[C@@H]1CCCC[C@@H]1n1c(=O)[nH]c2cnc3[nH]ccc3c21` [Example 118, 1-[(1S,2R)-2-Ethylcyclohexyl]-3,6-dihydroimidazo[4,5-d]pyrrolo-[2,3-b]pyridin-2(1H)-one hydrochloride] was tested, and the inhibition at 0.01 µM was greater than 50%.

Same assay, conditions: test compound 10^−5M; read-out: IR (JAK3 inhibition rate)
`CN(c1ccnc2[nH]ccc12)C1CCCCC1` [Example 211, N-cyclohexyl-N-methyl-1H-pyrrolo[2,3-b]pyridin-4-amine] showed an inhibition at 10 µM greater than 50%.
`Fc1cnc2[nH]ccc2c1N1CCCCC1` [Example 223, 5-fluoro-4-(1-piperidinyl)-1H-pyrrolo[2,3-b]pyridine] showed an inhibition at 10 µM greater than 50%.
With `CN(c1ccnc2[nH]cc(C#N)c12)C1CCCCC1` [Example 212, 4-[cyclohexyl(methyl)amino]-1H-pyrrolo[2,3-b]pyridine-3-carbonitrile] the inhibition at 10 µM was greater than 50%.
For `C[C@@H]1CCCC[C@@H]1N(C)c1c(C#N)cnc2[nH]ccc12` [Example 5, 4-{Methyl[(1S,2R)-2-methylcyclohexyl]amino}-1H-pyrrolo[2,3-b]-pyridine-5-carbonitrile], the inhibition at 10 µM was greater than 50%.
`C[C@@H]1CCCC[C@@H]1Nc1c(C#N)cnc2[nH]ccc12` [Example 15, 4-{[(1S,2R)-2-Methylcyclohexyl]amino}-1H-pyrrolo[2,3-b]-pyridine-5-carbonitrile] was tested, and the inhibition at 10 µM was greater than 50%.
With `C[C@@H]1CCCC[C@@H]1N(C)c1ccnc2[nH]cnc12` [Example 156, N-Methyl-N-[(1S,2R)-2-methylcyclohexyl]-3H-imidazo[4,5-b]-pyridin-7-amine] the inhibition at 10 µM was greater than 50%.
With `CNC(=O)c1cnc2[nH]ccc2c1NC1CCCCC1` [Example 187, 4-(cyclohexylamino)-N-methyl-1H-pyrrolo[2,3-b]pyridine-5-carboxamide] the inhibition at 10 µM was greater than 50%.
`O=C(O)c1cnc2[nH]ccc2c1NC1CCCCC1` [Example 96, 4-(cyclohexylamino)-1H-pyrrolo[2,3-b]pyridine-5-carboxylic acid] was tested, and the inhibition at 10 µM was greater than 50%.
In the case of `CCOC(=O)c1cnc2[nH]ccc2c1N(C)[C@H]1CCCC[C@H]1C` [Example 1, ethyl 4-{methyl[(1S,2R)-2-methylcyclohexyl]amino}-1H-pyrrolo[2,3-b]pyridine-5-carboxylate], the inhibition at 10 µM is reported as greater than 50%.
Molecule `C[C@@H]1CCCC[C@@H]1Nc1c(F)cnc2[nH]ccc12` [Example 225, 5-fluoro-N-[(1S,2R)-2-methylcyclohexyl]-1H-pyrrolo[2,3-b]pyridin-4-amine] has an inhibition at 10 µM greater than 50%.
With `O=C(Nc1ccccc1)c1cnc2[nH]ccc2c1NC1CCCCC1` [Example 192, 4-(Cyclohexylamino)-N-phenyl-1H-pyrrolo[2,3-b]pyridine-5-carboxamide] the inhibition at 10 µM was greater than 50%.
Molecule `CN(c1c(F)cnc2[nH]ccc12)C1CCCCC1` [Example 214, N-cyclohexyl-5-fluoro-N-methyl-1H-pyrrolo[2,3-b]pyridin-4-amine] has an inhibition at 10 µM greater than 50%.
Work on `CN(c1c(C(N)=O)cnc2[nH]ccc12)C1CCCCC1` [Example 4, 4-[Cyclohexyl(methyl)amino]-1H-pyrrolo[2,3-b]pyridine-5-carboxamide] yielded an inhibition at 10 µM greater than 50%.
Work on `CN(c1ccnc2nc[nH]c12)C1CCCCC1` [Example 209, N-cyclohexyl-N-methyl-1H-imidazo[4,5-b]pyridin-7-amine] yielded an inhibition at 10 µM greater than 50%.
`Fc1cnc2[nH]ccc2c1NC1CCCCC1` [Example 222, N-cyclohexyl-5-fluoro-1H-pyrrolo[2,3-b]pyridin-4-amine] showed an inhibition at 10 µM greater than 50%.
Molecule `NC(=O)c1cnc2[nH]ccc2c1N[C@@H]1CCCC[C@@H]1CO` [Example 109, 4-{[(1R,2S)-2-(Hydroxymethyl)cyclohexyl]amino}-1H-pyrrolo-[2,3-b]pyridine-5-carboxamide] has an inhibition at 10 µM greater than 50%.
For `NC(=O)c1cnc2[nH]ccc2c1NC1CCCC1` [Example 6, 4-(Cyclopentylamino)-1H-pyrrolo[2,3-b]pyridine-5-carboxamide], the inhibition at 10 µM was greater than 50%.
With `CN(c1ccnc2[nH]cc([N+](=O)[O-])c12)C1CCCCC1` [Example 210, N-cyclohexyl-N-methyl-3-nitro-1H-pyrrolo[2,3-b]pyridin-4-amine] the inhibition at 10 µM was greater than 50%.

Same assay, conditions: test compound 10^−8M; read-out: IR (JAK3 inhibition rate)
Molecule `C[C@@H]1CCN(c2ccc(C#N)cn2)C[C@@H]1n1c(=O)[nH]c2cnc3[nH]ccc3c21` [Example 240, 6-[(3R,4R)-4-Methyl-3-(2-oxo-3,6-dihydroimidazo[4,5-d]pyrrolo[2,3-b]pyridin-1(2H)-yl)-1-piperidinyl]nicotinonitrile] has an inhibition at 0.01 µM greater than 50%.
In the case of `C[C@@H]1CCCC[C@@H]1Nc1c(C(N)=O)cnc2[nH]ccc12` [Example 106, 4-{[(1S,2R)-2-Methylcyclohexyl]amino}-1H-pyrrolo[2,3-b]-pyridine-5-carboxamide], the inhibition at 0.01 µM is reported as greater than 50%.
`C[C@@H]1CCCC[C@@H]1n1c(=O)[nH]c2cnc3[nH]ccc3c21` [Example 112, 1-[(1S,2R)-2-methylcyclohexyl]-3,6-dihydroimidazo[4,5-d]pyrrolo[2,3-b]pyridin-2(1H)-one] showed an inhibition at 0.01 µM greater than 50%.
Work on `C[C@@H]1CCN(c2ccc(C#N)cn2)C[C@@H]1n1c(=O)[nH]c2cnc3[nH]ccc3c21` (relative stereo) [Example 323, rel-6-[(3R,4R)-4-Methyl-3-(2-oxo-3,6-dihydroimidazo[4,5-d]-pyrrolo[2,3-b]pyridin-1(2H)-yl)piperidin-1-yl]nicotinonitrile] yielded an inhibition at 0.01 µM greater than 50%.
`CC1CCN(C(=O)N(C)CC#N)CC1n1c(=O)[nH]c2cnc3[nH]ccc3c21` (centres unmarked) [Example 284, N-(Cyanomethyl)-N,4-dimethyl-3-(2-oxo-3,6-dihydroimidazo-[4,5-d]pyrrolo[2,3-b]pyridin-1(2H)-yl)-1-piperidinecarboxamide] gave an inhibition at 0.01 µM greater than 50%.
Work on `C[C@@H]1CCN(C(=O)c2ccc(Cl)s2)C[C@@H]1n1c(=O)[nH]c2cnc3[nH]ccc3c21` (relative stereo) [Example 170, rel-1-{(3R,4R)-1-[(5-Chloro-2-thienyl)carbonyl]-4-methyl-3-piperidinyl}-3,6-dihydroimidazo[4,5-d]pyrrolo[2,3-b]pyridin-2(1H)-one] yielded an inhibition at 0.01 µM greater than 50%.
`CC(C)[C@@H](C)Nc1c(C(N)=O)cnc2[nH]ccc12` [Example 18, 4-{[(1R)-1,2-Dimethylpropyl]amino}-1H-pyrrolo[2,3-b]pyridine-5-carboxamide] showed an inhibition at 0.01 µM greater than 50%.
`CC1CCN(C(=O)C2(C#N)CC2)CC1n1c(=O)[nH]c2cnc3[nH]ccc3c21` (centres unmarked) [Example 175, 1-{[4-Methyl-3-(2-oxo-3,6-dihydroimidazo[4,5-d]pyrrolo[2,3-b]-pyridin-1(2H)-yl)-1-piperidinyl]carbonyl}cyclopropane-carbonitrile] was tested, and the inhibition at 0.01 µM was greater than 50%.
For `C[C@@H]1CCCC[C@@H]1n1c(=O)[nH]c2cnc3[nH]cc(Br)c3c21` [Example 324, 8-bromo-1-[(1S,2R)-2-methylcyclohexyl]-3,6-dihydroimidazo[4,5-d]pyrrolo[2,3-b]pyridin-2(1H)-one], the inhibition at 0.01 µM was greater than 50%.
`CC1CCN(C(=O)N(C)C)CC1n1c(=O)[nH]c2cnc3[nH]ccc3c21` (centres unmarked) [Example 275, N,N,4-Trimethyl-3-(2-oxo-3,6-dihydroimidazo[4,5-d]pyrrolo-[2,3-b]pyridin-1(2H)-yl)-1-piperidine carboxamide] gave an inhibition at 0.01 µM greater than 50%.
Molecule `CC1CCN(c2ncc(C#N)s2)CC1n1c(=O)[nH]c2cnc3[nH]ccc3c21` (centres unmarked) [Example 242, 2-[4-Methyl-3-(2-oxo-3,6-dihydroimidazo[4,5-d]pyrrolo[2,3-b]-pyridin-1(2H)-yl)-1-piperidinyl]-thiazole-5-carbonitrile] has an inhibition at 0.01 µM greater than 50%.
In the case of `CC1CCN(C(=O)N2CC(C#N)C2)CC1n1c(=O)[nH]c2cnc3[nH]ccc3c21` (centres unmarked) [Example 280, 1-{[4-Methyl-3-(2-oxo-3,6-dihydroimidazo[4,5-d]pyrrolo[2,3-b]-pyridin-1(2H)-yl)-1-piperidinyl]carbonyl}-3-azetidinecarbonitrile], the inhibition at 0.01 µM is reported as greater than 50%.
With `N#Cc1ccc(N2CCC(Nc3c(C(N)=O)cnc4[nH]ccc34)CC2)nc1` [Example 17, 4-{[1-(5-Cyano-2-pyridinyl)-4-piperidinyl]amino}-1H-pyrrolo-[2,3-b]pyridine-5-carboxamide] the inhibition at 0.01 µM was greater than 50%.
In the case of `C[C@@H]1CCN(C(=O)N2CCC(F)(F)C2)C[C@@H]1n1c(=O)[nH]c2cnc3[nH]ccc3c21` (relative stereo) [Example 274, rel-1-{(3R,4R)-1-[(3,3-difluoropyrrolidin-1-yl)carbonyl]-4-methylpiperidin-3-yl}-3,6-dihydroimidazo[4,5-d]pyrrolo[2,3-b]pyridin-2(1H)-one], the inhibition at 0.01 µM is reported as greater than 50%.
With `N#Cc1ccc(N2CCC(Nc3c(C(N)=O)cnc4[nH]cnc34)CC2)nc1` [Example 322, 7-{[1-(5-cyano-2-pyridinyl)-4-piperidinyl]amino}-3H-imidazo[4,5-b]pyridine-6-carboxamide] the inhibition at 0.01 µM was greater than 50%.
For `CC1CCN(c2ccc(C#N)nn2)CC1n1c(=O)[nH]c2cnc3[nH]ccc3c21` (centres unmarked) [Example 244, 6-[4-Methyl-3-(2-oxo-3,6-dihydroimidazo[4,5-d]pyrrolo[2,3-b]-pyridin-1(2H)-yl)-1-piperidinyl]-3-pyridazinecarbonitrile], the inhibition at 0.01 µM was greater than 50%.
